Assay results as given in BindingDB's records for doi:10.1016/j.bmcl.2013.04.079 (Bristol-Myers Squibb, 2013).

assay: Antagonist activity at human CCR1 assessed as inhibition of HCC-1-induced chemotaxis

Work on CC(C)[C@@H](NC(=O)[C@@H]1CC[C@@H](O)C1)C(=O)N1CC[C@](O)(c2ccc(Cl)cc2)C(C)(C)C1 yielded an IC50 of 4 nM.

assay: Antagonist activity at human CCR1 assessed as inhibition of RANTES-induced chemotaxis

For CC(C)[C@@H](NC(=O)[C@@H]1CC[C@@H](O)C1)C(=O)N1CC[C@](O)(c2ccc(Cl)cc2)C(C)(C)C1, the IC50 was 1 nM.

assay: Antagonist activity at human CCR1 assessed as inhibition of MPIF-1-induced chemotaxis

Compound CC(C)[C@@H](NC(=O)[C@@H]1CC[C@@H](O)C1)C(=O)N1CC[C@](O)(c2ccc(Cl)cc2)C(C)(C)C1 has an IC50 of 2.7 nM.

assay: Antagonist activity at human CCR1 assessed as inhibition of MIP1alpha-induced chemotaxis

First: CC(C)[C@@H](NC(=O)[C@@H]1CC[C@@H](O)C1)C(=O)N1CC[C@](O)(c2ccc(Cl)cc2)C(C)(C)C1
Second: CC(C)[C@@H](NC(=O)[C@H]1CC[C@H](O)C1)C(=O)N1CC[C@](O)(c2ccc(Cl)cc2)C(C)(C)C1
The IC50 of the first is 5.7-fold lower: 2.1 nM for the first, 12 nM for the second.

Compared with CC(C)[C@@H](NC(=O)[C@@H]1CCC[C@@H]1N)C(=O)N1CC[C@](O)(c2ccc(Cl)cc2)C(C)(C)C1, CC(C)[C@@H](NC(=O)[C@@H]1CCC[C@@H]1O)C(=O)N1CC[C@](O)(c2ccc(Cl)cc2)C(C)(C)C1 is 1.8-fold lower in IC50: 5.6 nM for the first, 3.1 nM for the second.

Compared with CC(C)[C@@H](NC(=O)c1cccc(-c2ccccc2NC(N)=O)c1)C(=O)N1CCC(c2ccc(Cl)cc2)CC1, CC(C)[C@@H](NC(=O)c1cccc(-c2ccccc2NC(N)=O)c1)C(=O)N1CC[C@](O)(c2ccc(Cl)cc2)C(C)(C)C1 is 3.2-fold lower in IC50: 153 nM for the first, 48 nM for the second.

Going from CC(C)[C@@H](NC(=O)c1cccc(S(N)(=O)=O)c1)C(=O)N1CCC(c2ccc(Cl)cc2)CC1 to CC(C)[C@@H](NC(=O)c1ccc(F)c(O)c1)C(=O)N1CCC(c2ccc(Cl)cc2)CC1, the IC50 falls from 123 nM to 48 nM (2.6-fold). The second is the more potent here.

Compared with CC(C)[C@@H](NC(=O)Cc1ccncc1)C(=O)N1CCC(c2ccc(Cl)cc2)CC1, CC(C)[C@@H](NC(=O)Cc1ccncc1)C(=O)N1CC[C@](O)(c2ccc(Cl)cc2)C(C)(C)C1 is 31-fold lower in IC50: 107 nM for the first, 3.5 nM for the second. The second is the more potent here.

First: CC(C)[C@@H](NC(=O)c1cccnc1)C(=O)N1CC[C@H](c2ccc(Cl)cc2)C(C)(C)C1
Second: CC(C)[C@@H](NC(=O)c1cccnc1)C(=O)N1CC[C@](O)(c2ccc(Cl)cc2)C(C)(C)C1
The IC50 of the first is 4.8-fold higher: 29 nM for the first, 6.1 nM for the second.

First: CC(C)[C@@H](NC(=O)c1cccnc1)C(=O)N1CC[C@](O)(c2ccc(Cl)cc2)C2(CC2)C1
Second: CC(C)[C@@H](NC(=O)c1ccccc1)C(=O)N1CC[C@](O)(c2ccc(Cl)cc2)C(C)(C)C1
The IC50 of the first is 2.1-fold higher: 21 nM for the first, 10 nM for the second. The second is the more potent here.

Going from CC(C)[C@@H](NC(=O)C1CCCC1)C(=O)N1CCN(c2ccc(Cl)cc2)C(C)(C)C1 to CC(C)[C@@H](NC(=O)C1CCCC1)C(=O)N1CC[C@](O)(c2ccc(Cl)cc2)C(C)(C)C1, the IC50 falls from 18 nM to 2.5 nM (7.2-fold).

Compared with CC(=O)N[C@@H](C(=O)N1CC[C@](O)(c2ccc(Cl)cc2)C(C)(C)C1)C(C)C, CCC(=O)N[C@@H](C(=O)N1CC[C@](O)(c2ccc(Cl)cc2)C(C)(C)C1)C(C)C is 4.2-fold lower in IC50: 15 nM for the first, 3.6 nM for the second. The second is the more potent here.

Compared with CC(C)[C@@H](NC(=O)c1ccc(F)c(O)c1)C(=O)N1CC[C@](O)(c2ccc(Cl)cc2)C(C)(C)C1, CC(C)[C@@H](NC(=O)c1ccc(Cl)cc1)C(=O)N1CC[C@](O)(c2ccc(Cl)cc2)C(C)(C)C1 is 2.4-fold lower in IC50: 13 nM for the first, 5.5 nM for the second.

CC(C)[C@@H](NC(=O)c1cccc(S(N)(=O)=O)c1)C(=O)N1CC[C@](O)(c2ccc(Cl)cc2)C(C)(C)C1 and CC(C)[C@@H](NC(=O)c1cccc(C(=O)O)c1)C(=O)N1CC[C@](O)(c2ccc(Cl)cc2)C(C)(C)C1 are within 1.5-fold of each other in IC50: 9.9 nM for the first, 8.9 nM for the second.

Compared with CC(C)[C@@H](NC(=O)C1CCCC1(O)CCN1CCOCC1)C(=O)N1CC[C@](O)(c2ccc(Cl)cc2)C(C)(C)C1 (stereo partly drawn), CC(C)[C@@H](NC(=O)[C@@H]1CC[C@H](O)C1)C(=O)N1CC[C@](O)(c2ccc(Cl)cc2)C(C)(C)C1 is 2.9-fold lower in IC50: 8.3 nM for the first, 2.9 nM for the second.

Compared with CC(C)[C@@H](NC(=O)c1ccccc1Cl)C(=O)N1CC[C@](O)(c2ccc(Cl)cc2)C(C)(C)C1, CC(C)[C@@H](NC(=O)Cc1ccccc1)C(=O)N1CC[C@](O)(c2ccc(Cl)cc2)C(C)(C)C1 is 2.6-fold lower in IC50: 4.7 nM for the first, 1.8 nM for the second. The second is the more potent here.

Going from CC(C)CC(=O)N[C@@H](C(=O)N1CC[C@](O)(c2ccc(Cl)cc2)C(C)(C)C1)C(C)C to CC(C)CCC(=O)N[C@@H](C(=O)N1CC[C@](O)(c2ccc(Cl)cc2)C(C)(C)C1)C(C)C, the IC50 falls from 1.9 nM to 1.2 nM (1.6-fold). The second is the more potent here.

In the case of CC(C)[C@@H](NC(=O)[C@H]1CC[C@@H](O)C1)C(=O)N1CC[C@](O)(c2ccc(Cl)cc2)C(C)(C)C1, the IC50 is reported as 1.1 nM.

assay: Antagonist activity at human CCR1 assessed as inhibition of ieukotactin-1-induced chemotaxis

CC(C)[C@@H](NC(=O)[C@@H]1CC[C@@H](O)C1)C(=O)N1CC[C@](O)(c2ccc(Cl)cc2)C(C)(C)C1 gave an IC50 of 4.4 nM.
